Data: US20070092464A1, “Betadine neutralizer” (priority 2005, published 2007)

Tests used:
[1] = Iodine stain removal, trial and error testing / actual usage
Excerpt: In use, the desired level of concentration may be intentionally varied to correspond to anticipated situations. For instance, products that are directed towards general cleanup, such as flooring, or equipment, or linens, may be made at the higher ranges so as to ensure quick and complete neutralization of the Iodine. The higher concentrations serve also to overcome any associated soil or other materials that may impede the action of the sodium metabisulfite on the Iodine stains.

[2] = use of the metabisulfite solution directly on human and animal patients (tolerability); format: in vivo; conditions: 0.020 to 0.035 percent by weight in water, on skin
Excerpt: Additionally, the same solution is effective for removing stains elsewhere. The solutions of the present embodiments may be packaged for liquid application, such as in bottles, or sprays, or swabs.

[3] = cosmetic remover solution with parabens; cited from earlier work

O=S([O-])S(=O)(=O)[O-].[Na+].[Na+] [sodium metabisulfite]
effectiveness in eliminating Iodine staining ([1]; 0.020 to 0.035 percent by weight in water): highly effective | deleterious effects or irritation to the patient [2]: does not show any deleterious effects or irritation | irritation or other adverse reactions in and about the eyes of users [3]: did not contribute to any irritation or other adverse reactions

O=S([O-])([O-])=S.[Na+].[Na+] [sodium thiosulfate, reference compound]
effectiveness of Iodine stain removal compared to modest aqueous solutions of sodium metabisulfite ([1]; sodium thiosulfate in an alkaline detergent type matrix, actual usage): weak
